pIC50: −log10 of the molar value. The source made the active and inactive calls. The rule behind the calls is not given here.
Experiments:
[1] = tested on: Mycobacterium tuberculosis; test: Antimicrobial activity in Mycobacterium tuberculosis H37Rv ATCC 27294 assessed as reduction in metabolic activity by measuring incorporation radioactively labeled [3H] uracil into live bacilli preincubated for 72 hrs followed by [3H] uracil addition and measured after 18 hrs by beta-counter analysis; assay type: functional, organism-based; settings: for Activity: time 90.0 hrs
Macrophage = test: Cytotoxicity against human Primary macrophage cells assessed as reduction in cell viability at 2.5 to 75 uM incubated for 18 hrs by PrestoBlue reagent based fluorescence assay; assay type: toxicity; settings: dose 2.5-75 µM
Cytochrome P450 1A2 = molecular target: T1, Cytochrome P450 1A2 (Homo sapiens, UniProt P05177); test: Induction of CYP1A2 activity in human HepaRG cells at 5 to 10 uM incubated for 96 hrs by liquid chromatography with tandem mass spectrometry-based substrate cocktail assay; assay type: ADME, cell-based; settings: dose 5-10 µM
T1 sequence (P05177 whole entry): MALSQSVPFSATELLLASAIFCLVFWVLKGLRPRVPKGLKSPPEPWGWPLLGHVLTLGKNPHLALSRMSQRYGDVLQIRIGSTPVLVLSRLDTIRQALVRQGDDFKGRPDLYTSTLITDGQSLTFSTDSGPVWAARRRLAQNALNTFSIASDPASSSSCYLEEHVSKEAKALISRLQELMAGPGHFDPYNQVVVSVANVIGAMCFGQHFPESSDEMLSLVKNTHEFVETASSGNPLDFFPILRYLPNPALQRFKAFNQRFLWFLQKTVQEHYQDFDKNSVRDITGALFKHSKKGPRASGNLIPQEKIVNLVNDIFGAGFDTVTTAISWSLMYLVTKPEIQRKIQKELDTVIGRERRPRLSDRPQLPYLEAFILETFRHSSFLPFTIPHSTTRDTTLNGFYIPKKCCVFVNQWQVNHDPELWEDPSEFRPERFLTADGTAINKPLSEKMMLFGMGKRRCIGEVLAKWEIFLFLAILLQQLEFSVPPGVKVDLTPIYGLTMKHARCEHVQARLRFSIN

HepG2 [2] = test: Cytotoxicity against human HepG2 cells assessed as fold reduction in cell viability upto 20 uM incubated for 96 hrs by alamarBlue Cell Viability assay relative to control; assay type: toxicity, cell-based; settings: hepg2, 96 h
HepaRG = test: Cytotoxicity against human HepaRG cells assessed as reduction in cell viability at 60 uM incubated for 24 hrs by WST-1 assay; assay type: toxicity, cell-based
Cytochrome P450 2C8 [3] = molecular target: T2, Cytochrome P450 2C8 (Homo sapiens, UniProt P10632); test: Induction of CYP2C8 activity in human HepaRG cells at 5 to 10 uM incubated for 96 hrs by liquid chromatography with tandem mass spectrometry-based substrate cocktail assay; assay type: ADME, cell-based; settings: dose 5-10 µM
T2 sequence (P10632 whole entry): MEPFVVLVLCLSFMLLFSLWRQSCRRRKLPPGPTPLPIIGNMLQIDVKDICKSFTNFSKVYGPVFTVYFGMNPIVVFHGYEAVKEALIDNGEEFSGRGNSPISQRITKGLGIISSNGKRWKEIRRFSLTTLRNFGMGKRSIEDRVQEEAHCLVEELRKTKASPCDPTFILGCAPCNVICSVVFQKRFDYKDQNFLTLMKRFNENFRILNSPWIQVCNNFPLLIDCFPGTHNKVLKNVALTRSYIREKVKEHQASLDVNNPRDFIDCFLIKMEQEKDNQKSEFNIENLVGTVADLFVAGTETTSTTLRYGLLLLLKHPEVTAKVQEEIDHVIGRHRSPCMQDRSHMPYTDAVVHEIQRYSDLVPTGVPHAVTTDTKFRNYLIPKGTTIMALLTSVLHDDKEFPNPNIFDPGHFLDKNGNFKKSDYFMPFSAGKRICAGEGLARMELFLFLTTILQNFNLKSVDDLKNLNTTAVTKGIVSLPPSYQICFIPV

[4] = Induction of CYP3A4 mRNA expression in human HepaRG cells at 1 to 20 uM incubated for 24 hrs by RT-qPCR analysis
[5] = tested on: Mycobacterium tuberculosis; test: Antimicrobial activity in Mycobacterium tuberculosis H37Rv ATCC 27294 infected in human Primary macrophage cells assessed as reduction in intracellular growth of bacteria incubated for 4 days by CFU assay; assay type: functional, organism-based; settings: H37Rv ATCC 27294, Primary macrophage, 96 h
PBMC = test: Cytotoxicity against human PBMC cells assessed as reduction in cell viability at 2.5 to 75 uM incubated for 18 hrs by PrestoBlue reagent based fluorescence assay; assay type: toxicity; settings: dose 2.5-75 µM
Cytochrome P450 2C9 = Cytochrome P450 2C9 (Homo sapiens, UniProt P11712); test: Induction of CYP2C9 activity in human HepaRG cells at 5 to 10 uM incubated for 96 hrs by liquid chromatography with tandem mass spectrometry-based substrate cocktail assay; assay type: ADME, cell-based; settings: dose 5-10 µM
HepG2 [6] = test: Cytotoxicity against human HepG2 cells assessed as reduction in cell viability at 10 to 20 uM incubated for 48 hrs by WST-1 assay; assay type: toxicity, cell-based; settings: hepg2, 48 h, dose 10-20 µM
A549 = test: Cytotoxicity against human A549 cells assessed as reduction in cell viability at 2.5 to 75 uM incubated for 48 hrs by resazurin reagent based fluorescence assay; assay type: toxicity; settings: a549, 48 h, dose 2.5-75 µM
Cytochrome P450 2C19 = Cytochrome P450 2C19 (Homo sapiens, UniProt P33261); test: Induction of CYP2C19 activity in human HepaRG cells at 5 to 10 uM incubated for 96 hrs by liquid chromatography with tandem mass spectrometry-based substrate cocktail assay; assay type: ADME, cell-based; settings: dose 5-10 µM
[7] = Induction of CYP3A4 protein expression in human HepaRG cells at 1 to 20 uM incubated for 24 hrs by targeted mass spectrometry-based immunoassay
[8] = molecular target: T3, Nuclear receptor subfamily 1 group I member 2 (Homo sapiens, UniProt O75469); test: Activation of GAL4-DBD fused human PXR LBD expressed in human HepG2 cells co-expressing GAL4-responsive UAS-driven firefly luciferase and renilla luciferase assessed as increase in luciferase activity at 1 to 20 uM incubated for 24 hrs by Dual-Glo luciferase assay relative to control; assay type: cell-based; settings: hepg2, 24 h, dose 1-20 µM
T3 sequence (O75469 whole entry): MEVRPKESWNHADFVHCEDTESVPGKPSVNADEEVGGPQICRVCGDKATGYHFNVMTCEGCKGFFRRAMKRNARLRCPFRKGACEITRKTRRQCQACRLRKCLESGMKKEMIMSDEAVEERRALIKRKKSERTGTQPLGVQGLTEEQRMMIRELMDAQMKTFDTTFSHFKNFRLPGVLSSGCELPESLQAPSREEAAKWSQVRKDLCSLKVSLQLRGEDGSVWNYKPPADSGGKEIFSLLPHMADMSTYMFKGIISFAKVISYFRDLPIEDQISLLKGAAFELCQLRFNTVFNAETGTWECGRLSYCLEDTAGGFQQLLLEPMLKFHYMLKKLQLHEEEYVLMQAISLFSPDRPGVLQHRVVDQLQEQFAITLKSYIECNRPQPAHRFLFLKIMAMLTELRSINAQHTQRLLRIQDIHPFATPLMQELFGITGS

Cytochrome P450 3A4 = Cytochrome P450 3A4 (Homo sapiens, UniProt P08684); test: Induction of CYP3A4 activity in human HepaRG cells at 5 to 10 uM incubated for 96 hrs by liquid chromatography with tandem mass spectrometry-based substrate cocktail assay; assay type: ADME, cell-based; settings: dose 5-10 µM
Cytochrome P450 2B6 = molecular target: T4, Cytochrome P450 2B6 (Homo sapiens, UniProt P20813); test: Induction of CYP2B6 activity in human HepaRG cells at 5 to 10 uM incubated for 96 hrs by liquid chromatography with tandem mass spectrometry-based substrate cocktail assay; assay type: ADME, cell-based; settings: dose 5-10 µM
T4 sequence (P20813 whole entry): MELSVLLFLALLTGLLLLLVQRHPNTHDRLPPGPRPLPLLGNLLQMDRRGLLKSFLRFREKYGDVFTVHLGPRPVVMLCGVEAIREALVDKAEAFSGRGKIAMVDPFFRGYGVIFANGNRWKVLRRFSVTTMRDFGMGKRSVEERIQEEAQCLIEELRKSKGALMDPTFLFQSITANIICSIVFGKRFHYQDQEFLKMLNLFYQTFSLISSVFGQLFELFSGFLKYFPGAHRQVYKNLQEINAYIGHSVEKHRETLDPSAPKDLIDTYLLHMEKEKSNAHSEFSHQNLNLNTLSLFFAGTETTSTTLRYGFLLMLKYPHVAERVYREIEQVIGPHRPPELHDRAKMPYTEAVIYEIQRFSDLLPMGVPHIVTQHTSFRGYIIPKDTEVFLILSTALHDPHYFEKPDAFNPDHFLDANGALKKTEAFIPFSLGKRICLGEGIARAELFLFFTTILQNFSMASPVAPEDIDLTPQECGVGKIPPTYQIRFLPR

[9] = molecular target: T3, Nuclear receptor subfamily 1 group I member 2; test: Transactivation of human PXR in human HepG2 cells coexpressing firefly luciferase gene under control of CYP3A4 promoter and renilla luciferase assessed as increase in luciferase activity at 1 to 20 uM incubated for 48 hrs by Dual-Glo luciferase assay; settings: hepg2, 48 h
[10] = tested on: Mycobacterium tuberculosis; test: Antimicrobial activity in Mycobacterium tuberculosis expressing mCherry infected in human Primary macrophage cells assessed as reduction in number of intracellular bacilli at 7.5 uM by DAPI staining based Confocal laser scanning microscopy; assay type: functional, organism-based
Cytochrome P450 2C8 [11] = molecular target: T2, Cytochrome P450 2C8; test: Induction of CYP2C8 activity in human HepaRG cells at 10 uM incubated for 96 hrs by liquid chromatography with tandem mass spectrometry-based substrate cocktail assay; assay type: ADME, cell-based

Chain of Cytochrome P450 2C9 (P11712 whole entry): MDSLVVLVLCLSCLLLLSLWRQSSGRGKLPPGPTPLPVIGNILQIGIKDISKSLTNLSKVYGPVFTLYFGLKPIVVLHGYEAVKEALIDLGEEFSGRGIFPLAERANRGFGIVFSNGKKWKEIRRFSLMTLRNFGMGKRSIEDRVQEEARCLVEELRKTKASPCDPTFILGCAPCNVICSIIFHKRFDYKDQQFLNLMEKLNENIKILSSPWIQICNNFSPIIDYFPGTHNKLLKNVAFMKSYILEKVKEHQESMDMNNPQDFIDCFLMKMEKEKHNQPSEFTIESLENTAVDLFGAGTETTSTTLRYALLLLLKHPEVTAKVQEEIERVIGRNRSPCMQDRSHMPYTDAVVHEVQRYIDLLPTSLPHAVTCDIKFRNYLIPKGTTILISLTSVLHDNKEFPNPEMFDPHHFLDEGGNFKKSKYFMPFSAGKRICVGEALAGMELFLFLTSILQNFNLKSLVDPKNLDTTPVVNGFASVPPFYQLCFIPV
Chain of Cytochrome P450 2C19 (P33261 whole entry): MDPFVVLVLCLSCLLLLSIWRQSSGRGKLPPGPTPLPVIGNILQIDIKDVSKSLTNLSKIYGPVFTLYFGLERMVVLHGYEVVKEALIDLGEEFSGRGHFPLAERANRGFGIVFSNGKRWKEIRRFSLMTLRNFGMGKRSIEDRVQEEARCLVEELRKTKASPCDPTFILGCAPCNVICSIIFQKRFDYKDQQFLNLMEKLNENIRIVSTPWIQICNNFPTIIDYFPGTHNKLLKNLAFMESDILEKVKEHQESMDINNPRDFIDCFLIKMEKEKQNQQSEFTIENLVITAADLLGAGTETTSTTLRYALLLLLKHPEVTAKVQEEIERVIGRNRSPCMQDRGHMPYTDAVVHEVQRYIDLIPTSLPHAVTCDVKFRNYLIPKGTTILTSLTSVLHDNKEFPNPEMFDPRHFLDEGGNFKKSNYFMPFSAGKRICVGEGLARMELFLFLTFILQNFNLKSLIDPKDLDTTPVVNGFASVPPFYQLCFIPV
Chain of Cytochrome P450 3A4 (P08684 whole entry): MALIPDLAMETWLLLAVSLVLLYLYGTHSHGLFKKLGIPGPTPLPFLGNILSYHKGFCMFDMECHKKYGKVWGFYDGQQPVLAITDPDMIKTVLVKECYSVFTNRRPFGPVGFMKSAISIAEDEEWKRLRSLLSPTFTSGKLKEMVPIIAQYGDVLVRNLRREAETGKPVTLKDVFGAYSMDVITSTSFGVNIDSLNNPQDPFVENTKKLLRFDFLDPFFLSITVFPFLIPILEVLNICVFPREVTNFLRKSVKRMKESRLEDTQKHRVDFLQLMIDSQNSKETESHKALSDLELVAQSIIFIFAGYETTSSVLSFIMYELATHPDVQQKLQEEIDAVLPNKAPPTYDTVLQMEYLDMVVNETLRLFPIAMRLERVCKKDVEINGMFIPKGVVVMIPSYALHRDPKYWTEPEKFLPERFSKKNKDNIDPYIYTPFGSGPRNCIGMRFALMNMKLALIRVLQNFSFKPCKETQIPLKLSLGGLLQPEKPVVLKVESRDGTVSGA

CC(=O)C1=C(O)[C@@]2(CC=C(C)C)C[C@H](CC=C(C)C)C(C)(C)[C@@](CC=C(C)C)(C1=O)C2=O
Activity [1]: inactive

C=CC[C@@]12C[C@H](CC=C(C)C)C(C)(C)[C@@](CC=C)(C(=O)C(C(C)=O)=C1[O-])C2=O.[Na+]
Activity (Macrophage): Non-Toxic | Activity (Cytochrome P450 1A2): Not Active | fold change (FC) (HepG2 [2]): 5 | Activity (HepaRG): < 80% | Activity (Cytochrome P450 2C8 [3]): Not Active | Activity [4]: Not Active | pIC50 [5]: 5.17 | Activity (PBMC): Non-Toxic | Activity (Cytochrome P450 2C9): Not Active | Activity (HepG2 [6]): Toxic | Activity (A549): Non-Toxic | Activity (Cytochrome P450 2C19): Not Active | pIC50 [1]: 4.41 | Activity [1]: Active | Activity [7]: Not Active | Activity [8]: Dose-Dependent Effect | Activity (Cytochrome P450 3A4): Not Active | Activity (Cytochrome P450 2B6): Not Active | Activity [9]: Dose-Dependent Effect | Activity [10]: Active

CC(C)=CC[C@H]1C[C@@]2(CC=C(C)C)C(=O)[C@](CC=C(C)C)(C(=O)C(C(=O)C(C)C)=C2O)C1(C)C
Activity [1]: inactive

C=CC[C@@]12C(=O)C(C(=O)c3ccccc3)=C(O)[C@@](Cc3ccccc3)(C[C@H](Cc3ccccc3)C1(C)C)C2=O
Activity [1]: inactive

C=CC[C@@]12C(=O)C(C(=O)c3ccccc3)=C(O)[C@@](Cc3ccccc3)(C[C@H](CC=C(C)C)C1(C)C)C2=O
Activity [1]: inactive

C=CC[C@@]12C[C@H](CC=C(C)C)C(C)(C)[C@@](CC=C)(C(=O)C(C(=O)c3ccccc3)=C1O)C2=O
Activity [1]: inactive

CO[C@H]1/C=C/O[C@@]2(C)Oc3c(C)c(O)c4c(O)c(c(/C=N/N5CCN(C)CC5)c(O)c4c3C2=O)NC(=O)/C(C)=C\C=C\[C@H](C)[C@H](O)[C@@H](C)[C@@H](O)[C@@H](C)[C@H](OC(C)=O)[C@@H]1C [RIFAMPIN]
Activity (Cytochrome P450 2C8 [11]): Not Active | Activity [8]: Active

Source: ChEMBL document CHEMBL5390228, “Unnatural Endotype B PPAPs as Novel Compounds with Activity against Mycobacterium tuberculosis” (J Med Chem, 2023)
